Measurements reported in patent publication US6638973B2, “Taxane formulations” (FSU Research Foundation, Inc., priority 2000, dated 2003).
pIC50: −log10 of the molar value. Where two headings read alike, the source gives them in different places.

Test system: HCT116 cells
Assay: In vitro cytotoxicity measured by the cell colony formation assay
Assay type: cell-based
Details: colonies counted after 7 days, read-out: IN VITRO ID 50 (nm) HCT116
Outline: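 Colony-forming survival was scored 7 days after a 72 h, 37 °C compound exposure followed by washout into fresh medium.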

[1] = HCT116 colony formation, 72 h drug incubation, Example 5, C-7 ester/C-10 hydroxy taxanes
[2] = HCT116 colony formation, 72 h drug incubation, Example 10, C-10 ester/C-7 hydroxy taxanes
[3] = HCT116 cells, 72 h incubation with drug, ID50 = drug concentration producing 50% inhibition of colony formation

Row | Compound | pIC50 [2] | further results
1 | CCC(=O)O[C@H]1C[C@H]2OC[C@@]2(OC(C)=O)C2[C@H](OC(=O)c3ccccc3)[C@]3(O)C[C@H](OC(=O)[C@H](O)[C@@H](NC(=O)c4cccnc4)c4cccs4)C(C)=C([C@@H](O)C(=O)[C@@]21C)C3(C)C (stereo partly drawn) [Compound 4106] |  | pIC50 [1]: > 8.00
2 | CC(=O)O[C@@]12CO[C@@H]1C[C@H](O)[C@@]1(C)C(=O)[C@H](OC(=O)C3CC3)C3=C(C)[C@@H](OC(=O)[C@H](O)[C@@H](NC(=O)OC(C)(C)C)c4cccs4)C[C@@](O)([C@@H](OC(=O)c4ccccc4)C12)C3(C)C (stereo partly drawn) [Compound 0854] | > 9.00 | 
3 | CCCC(=O)N[C@@H](c1ccco1)[C@@H](O)C(=O)O[C@H]1C[C@@]2(O)[C@@H](OC(=O)c3ccccc3)C3[C@](C)(C(=O)[C@H](OC(=O)C4CC4)C(=C1C)C2(C)C)[C@@H](O)C[C@H]1OC[C@@]31OC(C)=O (stereo partly drawn) [Compound 4062] | > 9.00 | 
4 | CC(=O)OC12COC1CC(O)C1(C)C(=O)C(OC(=O)c3ccco3)C3=C(C)C(OC(=O)C(O)C(NC(=O)OC(C)(C)C)c4ccsc4)CC(O)(C(OC(=O)c4ccccc4)C21)C3(C)C (stereo not drawn) [Compound 2173] | > 9.00 | 
5 | CCOC(=O)N[C@@H](c1cccs1)[C@@H](O)C(=O)O[C@H]1C[C@@]2(O)[C@@H](OC(=O)c3ccccc3)C3[C@](C)(C(=O)[C@H](OC(=O)OCC)C(=C1C)C2(C)C)[C@@H](O)C[C@H]1OC[C@@]31OC(C)=O (stereo partly drawn) [Compound 2988] |  | pIC50 [3]: > 9.00
6 | CCC(=O)O[C@H]1C(=O)[C@@]2(C)C([C@H](OC(=O)c3ccccc3)[C@]3(O)C[C@H](OC(=O)[C@H](O)[C@@H](NC(=O)OC(C)(C)C)C(C)C)C(C)=C1C3(C)C)[C@]1(OC(C)=O)CO[C@@H]1C[C@@H]2O (stereo partly drawn) [Compound 0583] | > 8.00 | 
7 | COC(=O)O[C@H]1C[C@H]2OC[C@@]2(OC(C)=O)C2[C@H](OC(=O)c3ccccc3)[C@]3(O)C[C@H](OC(=O)[C@H](O)[C@@H](NC(=O)C=C(C)C)c4cccs4)C(C)=C([C@@H](O)C(=O)[C@@]21C)C3(C)C (stereo partly drawn) [Compound 4244] |  | pIC50 [3]: > 9.00
8 | CC(=O)O[C@@]12CO[C@@H]1C[C@H](O)[C@@]1(C)C(=O)[C@H](OC(=O)C3CC3)C3=C(C)[C@@H](OC(=O)[C@H](O)[C@@H](NC(=O)c4cccs4)c4cccs4)C[C@@](O)([C@@H](OC(=O)c4ccccc4)C12)C3(C)C (stereo partly drawn) [Compound 3453] | > 9.00 | 
9 | CCC(=O)O[C@H]1C[C@H]2OC[C@@]2(OC(C)=O)C2[C@H](OC(=O)c3ccccc3)[C@]3(O)C[C@H](OC(=O)[C@H](O)[C@@H](NC(=O)OCC(C)C)C4CC4)C(C)=C([C@@H](O)C(=O)[C@@]21C)C3(C)C (stereo partly drawn) [Compound 5191] |  | pIC50 [1]: > 8.00
10 | CC(=O)OC12COC1CC(O)C1(C)C(=O)C(OC(=O)c3ccco3)C3=C(C)C(OC(=O)C(O)C(NC(=O)OC(C)(C)C)c4cccs4)CC(O)(C(OC(=O)c4ccccc4)C21)C3(C)C (stereo not drawn) [Compound 2164] | > 9.00 | 
11 | C/C=C/C(=O)N[C@@H](c1ccsc1)[C@@H](O)C(=O)O[C@H]1C[C@@]2(O)[C@@H](OC(=O)c3ccccc3)C3[C@](C)(C(=O)[C@H](O)C(=C1C)C2(C)C)[C@@H](OC(=O)OCC)C[C@H]1OC[C@@]31OC(C)=O (stereo partly drawn) [Compound 4999] |  | pIC50 [3]: > 9.00
12 | CCC(=O)O[C@H]1C(=O)[C@@]2(C)C([C@H](OC(=O)c3ccccc3)[C@]3(O)C[C@H](OC(=O)[C@H](O)[C@@H](NC(=O)OC(C)(C)C)C4CC4)C(C)=C1C3(C)C)[C@]1(OC(C)=O)CO[C@@H]1C[C@@H]2O (stereo partly drawn) [Compound 0578] | > 9.00 | 
13 | CCCC(=O)OC1C(=O)C2(C)C(O)CC3OCC3(OC(C)=O)C2C(OC(=O)c2ccccc2)C2(O)CC(OC(=O)C(O)C(NC(=O)OC(C)(C)C)C(C)C)C(C)=C1C2(C)C (stereo not drawn) [Compound 1031] | > 8.00 | 
14 | CCOC(=O)O[C@H]1C(=O)[C@@]2(C)C([C@H](OC(=O)c3ccccc3)[C@]3(O)C[C@H](OC(=O)[C@H](O)[C@@H](NC(=O)OC(C)C)c4ccco4)C(C)=C1C3(C)C)[C@]1(OC(C)=O)CO[C@@H]1C[C@@H]2O (stereo partly drawn) [Compound 3963] |  | pIC50 [3]: > 9.00
15 | C/C=C/C(=O)N[C@@H](c1ccsc1)[C@@H](O)C(=O)O[C@H]1C[C@@]2(O)[C@@H](OC(=O)c3ccccc3)C3[C@](C)(C(=O)[C@H](OC(=O)C4CC4)C(=C1C)C2(C)C)[C@@H](O)C[C@H]1OC[C@@]31OC(C)=O (stereo partly drawn) [Compound 5040] | > 9.00 | 
